We go through 1 compound from patent US20260048101A1, “GLP-1R ANTAGONISM TO IMPROVE NUTRITION FOLLOWING GASTROINTESTINAL SURGERY” (Amylyx Pharmaceuticals, Inc., priority 2023, published 2026).

The subject of the data set is Patient 2 (total gastrectomy, severe hypoglycemia events). Description: Patient 2 case history: prior pharmacotherapy. Type of data set: in vivo, human. Particulars: Patient 2, before trial participation. From the text: The patient had been placed on a liquid diet for 6 weeks after surgery and had initially lost 20 lbs. but otherwise fared well in the immediate postoperative period. […] The meals caused pain, gastrointestinal symptoms, and frequent diarrhea (per patient report). The patient also complained of weakness, lethargy and general feeling of despondency. […] They began to experience severe hypoglycemia events, including multiple episodes of loss of consciousness with requirement for emergency medical assistance. […] The patient was referred for trial participation.

For the compound `C[C@H]1O[C@H](O[C@H]2[C@H](O)[C@@H](O)[C@@H](O[C@H]3[C@H](O)[C@@H](O)C(O)O[C@@H]3CO)O[C@@H]2CO)[C@H](O)[C@@H](O)[C@@H]1N[C@H]1C=C(CO)[C@@H](O)[C@H](O)[C@H]1O` (stereo partly shown) [acarbose], the gastrointestinal symptoms entry is on record as “worsening of gastrointestinal symptoms”.
